Reference: patent US6495568B1, “Hydroxamic acid derivatives as matrix metalloprotease (MMP) inhibitors” (Warner-Lambert Company, priority 1997, dated 2002)

Key:
[1] = tested on: human ovarian carcinoma xenografts; settings: mice carrying human ovarian carcinoma xenografts; Cancer Res., 1993, 53, 2087; cited from earlier work
MMP-2 = biological target: T1, MMP-2 (Homo sapiens, UniProt P08253); test: Inhibition of MMP-2 (fluorogenic peptide cleavage); assay type: biochemical; settings: in vitro, catalytic domain MMP-2
T1 construct: Catalytic domains MMP-2, MMP-3 and MMP-9 were prepared in Pfizer Central Research laboratories
T1 sequence (P08253 with tags, fused parts or gaps DEL222-396 limits assumed): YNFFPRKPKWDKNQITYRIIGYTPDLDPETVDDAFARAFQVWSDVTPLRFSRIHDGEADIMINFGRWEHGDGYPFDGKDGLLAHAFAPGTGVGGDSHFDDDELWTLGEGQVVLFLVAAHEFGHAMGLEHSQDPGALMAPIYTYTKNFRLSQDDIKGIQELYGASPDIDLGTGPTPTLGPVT
Method: (§1) The biological activities of the compounds of the present invention were determined by the following test methods, which are based on the ability of the compounds to inhibit the cleavage of various fluorogenic peptides by MMPs 1, 2, 3, 9, 13 and 14.
(§2) The assays for MMPs 2, 3, 9 and 14 are based upon the original protocol described in FEBS, 1992, 296, 263, with the minor modifications described below.
(§3) Inhibition of MMP-2, MMP-3 and MMP-9
(§4) Catalytic domains MMP-2, MMP-3 and MMP-9 were prepared in Pfizer Central Research laboratories. A stock solution of MMP-2, MMP-3 or MMP-9 (1 μM) was activated by the addition of APMA. For MMP-2 and MMP-9, a final concentration of 1 mM APMA was added, followed by incubation for 1 hour at 37° C. MMP-3 was activated by the addition of 2 mM APMA, followed by incubation for 3 hours at 37° C. The enzymes were then diluted in Tris-HCl assay buffer (100 mM Tris, 100 mM NaCl, 10 mM CaCl2 and 0.16% Brij 35, pH 7.5) to a concentration of 10 nM. The final concentration of enzyme used in the assays was 1 nM.
(§5) The fluorogenic substrate used in this screen was Mca-Arg-Pro-Lys-Pro-Tyr-Ala-Nva-Trp-Met-Lys(Dnp)-NH2 (Bachem Ltd., Essex, UK) as originally described in J.Biol.Chem., 1994, 269, 20952. This substrate was selected because it has a balanced hydrolysis rate against MMPs 2, 3 and 9 (kcat/km of 54,000, 59,400 and 55,300 s^−1 M^−1 respectively). The final substrate concentration used in the assay was 5 μM.
(§6) Determination of Enzyme Inhibition
(§7) The test compound was dissolved in dimethyl sulphoxide and diluted with assay buffer so that no more than 1% dimethyl sulphoxide was present. Test compound and enzyme were added to each well of a 96 well plate and allowed to equilibrate for 15 minutes at 37° C. in an orbital shaker prior to the addition of substrate. Plates were then incubated for 1 hour at 37° C., prior to determination of fluorescence using a fluorimeter (Fluostar; BMG Lab Technologies, Aylesbury, UK) at an excitation wavelength of 328 nm and emission wavelength of 393 nm. The potency of inhibition was measured from the amount of substrate cleavage obtained using a range of test compound concentrations and, from the resulting dose-response curve, an IC50 value (the concentration of inhibitor required to inhibit 50% of the enzyme activity) was calculated.

MMP-3 = biological target: T2, MMP-3 (Homo sapiens, UniProt P08254); test: Inhibition of MMP-3 (fluorogenic peptide cleavage); assay type: biochemical; settings: in vitro, catalytic domain MMP-3
T2 construct: Catalytic domains MMP-2, MMP-3 and MMP-9 were prepared in Pfizer Central Research laboratories; made in house
T2 sequence (P08254 100-272 limits assumed): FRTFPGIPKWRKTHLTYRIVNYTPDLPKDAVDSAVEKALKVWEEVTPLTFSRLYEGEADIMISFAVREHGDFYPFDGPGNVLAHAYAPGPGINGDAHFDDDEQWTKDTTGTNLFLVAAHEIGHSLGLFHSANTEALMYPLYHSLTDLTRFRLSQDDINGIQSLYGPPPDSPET
Method: as §1, §2, §3, §4, §5, §6, §7

Human recombinant MMP-13 = biological target: T3, Human recombinant MMP-13 (Homo sapiens, UniProt P45452); test: Inhibition of MMP-13 (fluorogenic peptide cleavage); assay type: biochemical; settings: in vitro
T3 construct: purchased PanVera Corporation (Madison, Wis.)
Method: as §1
Human recombinant MMP-13 was prepared by PanVera Corporation (Madison, Wis.) and characterised at Pfizer Central Research laboratories. A 1.9 mg/ml stock solution was activated with 2 mM APMA for 2 hours at 37° C. MMP-13 was then diluted in assay buffer (50 mM Tris, 200 mM NaCl, 5 mM CaCl2, 20 μM ZnCl2 and 0.02% Brij 35, pH 7.5) to a concentration of 5.3 nM. The final concentration of enzyme used in the assay was 1.3 nM.
The fluorogenic substrate used in this screen was Dnp-Pro-Cha-Gly-Cys(Me)-His-Ala-Lys(NMA)-NH2. The final substrate concentration used in the assay was10 μM.
as §6
The test compound was dissolved in dimethyl sulphoxide and diluted with assay buffer so that no more than 1% dimethyl sulphoxide was present. Test compound and enzyme were added to each well of a 96 well plate. The addition of substrate to each well initiated the reaction. Fluorescence intensity was determined using a 96 well plate fluorimeter (Cytofluor II; PerSeptive Biosystems, Inc., Framingham, Mass.) at an excitation wavelength of 360 nm and emission wavelength of 460 nm. […]

SMILES: CNC(=O)[C@H](Cc1ccccc1)NC(=O)[C@H](CC(C)C)[C@H](CSc1cccs1)C(=O)NO [BB-94]
- survival [1]: prolong the survival
- tumour burden [1]: decrease the tumour burden

SMILES: C=CCC(C)(C(=O)NO)S(=O)(=O)N1CC=C(c2ccc(-c3ccccc3)c(C)c2)CC1 (racemic) [Example 15, N-Hydroxy-2(R,S)-methyl-2-[4-(3-methyl-4-phenylphenyl)-1,2,3,6-tetrahydropyridin-1-ylsulphonyl]pent-4-enamide]
- IC50 (MMP-2): 173 nM
- IC50 (MMP-3): 20 nM

SMILES: Cc1cc(C2=CCN(S(=O)(=O)CC(=O)NO)CC2)ccc1-c1ccc2c(c1)OCO2 [Example 56, N-Hydroxy-2-{4-[4-(1,3-benzodioxol-5-yl)-3-methylphenyl]-1,2,3,6-tetrahydropyridin-1-ylsulphonyl}acetamide]
- IC50 (MMP-2): 387 nM
- IC50 (MMP-3): 15 nM
- melting point: 165 to 167 °C

SMILES: CCOc1cccc(-c2ccc(C3=CCN(S(=O)(=O)C4(C(=O)NO)CCOCC4)CC3)cc2C)c1 [Example 28, N-Hydroxy-4-{4-[4-(3-ethoxyphenyl)-3-methylphenyl]-1,2,3,6-tetrahydropyridin-1-ylsulphonyl}tetrahydropyran-4-carboxymide]
- IC50 (MMP-2): 432 nM
- IC50 (MMP-3): 24 nM
- melting point: 152 to 154 °C

SMILES: COc1cccc(-c2ccc(C3CCN(S(=O)(=O)C4(C(=O)NO)Cc5ccccc5C4)CC3)cc2C)c1 [Example 50, N-Hydroxy-2-{4-[4-(3-methoxyphenyl)-3-methylphenyl]piperidin-1-ylsulphonyl}indane-2-carboxymide]
- IC50 (MMP-2): 1910 nM
- IC50 (MMP-3): 23 nM
- melting point: 199 to 202 °C

SMILES: O=C(CS(=O)(=O)N1CCC(c2ccc(-c3ccccc3)cc2)CC1)NO [Example 3, N-Hydroxy-2-[4-(4-phenylphenyl)piperidin-1-ylsulphonyl]acetamide]
- IC50 (Human recombinant MMP-13): 25 nM
- IC50 (MMP-2): 38 nM
- IC50 (MMP-3): 26 nM
- melting point: 200 to 201 °C

SMILES: Cc1cc(C2=CCN(S(=O)(=O)C(C)(C)C(=O)NO)CC2)ccc1-c1cnc2ccccc2c1 [Example 40, N-Hydroxy-2-methyl-2-{4-[3-methyl-4-(quinolin-3-yl)phenyl]-1,2,3,6-tetrahydropyridin-1-ylsulphonyl}propanamide]
- IC50 (MMP-2): 525 nM
- IC50 (MMP-3): 18 nM
- melting point: 158 to 160 °C

SMILES: Cc1cc(C2=CCN(S(=O)(=O)CC(=O)NO)CC2)ccc1-c1ccccc1 [Example 2, N-Hydroxy-2-[4-(3-methyl-4-phenylphenyl)-1,2,3,6-tetrahydropyridin-1-ylsulphonyl]acetamide]
- IC50 (Human recombinant MMP-13): 28 nM
- IC50 (MMP-2): 315 nM
- IC50 (MMP-3): 16 nM
- melting point: 190 to 191 °C

SMILES: COCCOc1cccc(-c2ccc(C3=CCN(S(=O)(=O)CC(=O)NO)CC3)cc2C)c1 [Example 43, N-Hydroxy-2-{4-[4-(3-[2-methoxyethoxy]phenyl)-3-methylphenyl]-1,2,3,6-tetrahydropyridin-1-ylsulphonyl}acetamide]
- melting point: 158 to 160 °C

SMILES: Cc1cc(C2=CCN(S(=O)(=O)CC(=O)NO)CC2)ccc1-c1cccc(OC(F)(F)F)c1 [Example 60, N-Hydroxy-2-{4-[3-methyl-4-(3-trifluoromethoxyphenyl)phenyl]-1,2,3,6-tetrahydropyridin-1-ylsulphonyl}acetamide]
- melting point: 154 °C

SMILES: COCc1cccc(-c2ccc(C3=CCN(S(=O)(=O)CC(=O)NO)CC3)cc2C)c1 [Example 42, N-Hydroxy-2-{4-[4-(3-methoxymethylphenyl)-3-methylphenyl]-1,2,3,6-tetrahydropyridin-1-ylsulphonyl}acetamide]
- melting point: 151 to 153 °C

SMILES: O=C(CS(=O)(=O)N1CCC(c2ccc(Oc3ccccc3)cc2)CC1)NO [Example 46, N-Hydroxy-2-[4-(4-phenoxyphenyl)piperidin-1-ylsulphonyl]acetamide]
- melting point: 176 to 179 °C

SMILES: CCc1cccc(-c2ccc(C3=CCN(S(=O)(=O)CC(=O)NO)CC3)cc2C)c1 [Example 23, N-Hydroxy-2-{4-[4-(3-ethylphenyl)-3-methylphenyl]-1,2,3,6-tetrahydropyridin-1-ylsulphonyl}acetamide]
- melting point: 151 to 154 °C

SMILES: CCOc1cccc(-c2ccc(C3CCN(S(=O)(=O)C(C)(C)C(=O)NO)CC3)cc2C)c1 [Example 32, N-Hydroxy-2-{4-[4-(3-ethoxyphenyl)-3-methylphenyl]piperidin-1-ylsulphonyl}-2-methylpropanamide]
- melting point: 172 to 174 °C

SMILES: CCOc1cccc(-c2ccc(C3=CCN(S(=O)(=O)C(C)(C)C(=O)NO)CC3)cc2C)c1 [Example 30, N-Hydroxy-2-{4-[4-(3-ethoxyphenyl)-3-methylphenyl]-1,2,3,6-tetrahydropyridin-1-ylsulphonyl}2-methylpropanamide]
- melting point: 116 to 118 °C
